Experimental data: publication PMC4104029, “Mechanism of Action of Compound-13: An α1-Selective Small Molecule Activator of AMPK” (Chemistry & Biology, 2014)

Key:
[1] = target: AMPKα2β1γ1 Thr172 dephosphorylation by PP2Cα (Homo sapiens, UniProt P54619+P54646); assay: Phosphatase protection assay (PP2Cα); assay type: biochemical; conditions: incubation with PP2Cα; 1–10 μM
Protocol: Figure 2 C2 Is a Partial Agonist of α2 Complexes and Selectively Protects α1 Complexes against Dephosphorylation by PP2C (A and B) Recombinant AMPKα1β1γ1 (A) or AMPKα2β1γ1 (B) was assayed in the presence of AMP (30 μM) and increasing concentrations of C2 (0–20 μM). Results are expressed as fold increase in activity relative to controls without ligand and represent the mean ± SD for three independent experiments. (C and D) The effects of C2 and AMP on dephosphorylation and inactivation of AMPKα1β1γ1 (C) and α2β1γ1 (D) by PP2Cα (present in all assay conditions). Results are expressed as a percentage of control reactions performed in the absence of Mg^2+ and represent the mean ± SD of three independent experiments. Representative blots of pT172 and total AMPKα are shown below the bar charts. (E) AMPKα1β1γ2 WT (open bars) and mutant complexes (β1 ΔCBD [β1 Δ1–185], gray bars, and γ2 R531G, black bars) were purified from COS1 cells by transient overexpression of the indicated constructs, as described in Methods, and assayed in the presence of the indicated compounds under standard conditions. Results are expressed as the fold increase in activity relative to controls in the absence of compound and represent the mean ± SD for three independent experiments.
AMPKα1β1γ1 or α2β1γ1 was dephosphorylated in vitro with PP2Cα in 50 mM HEPES pH 7.4, 10 mM MgCl2, 0.1 mM EGTA, 0.03% BRIJ-35, 1 mM DTT, and the indicated compounds for 15 min at 30°C. Mg^2+ was omitted from the negative control. Reactions were terminated by 20-fold dilution and storage on ice. AMPK activity was assayed under standard conditions in the presence of saturating AMP (200 μM). The results are expressed as percentage activity of the negative control. In control experiments, PP2Cα activity was determined in reactions containing 50 mM TES pH 7.4, 0.1 mM EGTA, 25 mM MgCl2, 0.01% BRIJ-35, 0.02% (v/v) 2-mercaptoethanol, and 100 μM EFLR(pT)SCGS (168–176 AMPKα2). Liberated phosphate was determined using malachite green ([Baykov et al., 1988]).

[2] = target: T1, AMPKα1 complexes in primary hepatocytes (Mus musculus, UniProt O54950+Q5EG47); assay: Isoform-specific immunoprecipitate kinase assay from hepatocytes; assay type: cell-based; conditions: 1 hr; washed immunoprecipitates
T1 construct: AMPKα1 or AMPKα2 complexes were immunoprecipitated from hepatocyte extracts; endogenous in cells; host or cells: primary mouse hepatocytes
Protocol: (§1) Figure 4 The C2 Prodrug, C13, Potently Activates AMPK in Mouse Primary Hepatocytes (A) Isolated mouse hepatocytes were incubated with vehicle or the indicated concentrations of C13 for 1 hr. AICAR (0.5 mM) was included as a positive control. Cell lysates were analyzed using western blotting with the indicated antibodies. (B) AMPKα1 or AMPKα2 complexes were immunoprecipitated from hepatocyte extracts prepared as described in (A) and assayed for kinase activity using 0.2 mM AMARA and 0.1 mM ATP. Results are expressed as the mean Pi incorporated in picomoles per minute-milligram ± SD. […] Lysates were analyzed using western blotting with the indicated antibodies. (D) Mouse hepatocytes were treated with the indicated compounds for 1 hr, and adenine nucleotide ratios were determined using capillary electrophoresis of perchloric acid extracts. […] Lysates were analyzed using western blotting with the indicated antibodies. […] Lysates were analyzed using western blotting with the indicated antibodies. […]
(§2) AMPK phosphotransferase activity was assayed in reactions (50 μl) containing 50 mM HEPES, pH 7.4, 10 mM MgCl2, 0.1 mM EGTA, 1 mM DTT, 0.01% BRIJ-35, 100 μM [γ-^32P]ATP (∼250 CPM⋅pmol^−1) and 200 μM AMARA (AMARAASAAALARRR). […] Washed filters were dried and [^32P] incorporation determined by Cherenkov counting. […]

[3] = target: T2, AMPKα2 complexes in primary hepatocytes (Mus musculus, UniProt O54950+Q8BRK8); assay: as above; assay type: cell-based; conditions: 1 hr; washed immunoprecipitates
T2 construct: AMPKα1 or AMPKα2 complexes were immunoprecipitated from hepatocyte extracts; endogenous in cells; host or cells: primary mouse hepatocytes
Protocol: as §1, §2

T2 sequence (Q8BRK8 whole entry): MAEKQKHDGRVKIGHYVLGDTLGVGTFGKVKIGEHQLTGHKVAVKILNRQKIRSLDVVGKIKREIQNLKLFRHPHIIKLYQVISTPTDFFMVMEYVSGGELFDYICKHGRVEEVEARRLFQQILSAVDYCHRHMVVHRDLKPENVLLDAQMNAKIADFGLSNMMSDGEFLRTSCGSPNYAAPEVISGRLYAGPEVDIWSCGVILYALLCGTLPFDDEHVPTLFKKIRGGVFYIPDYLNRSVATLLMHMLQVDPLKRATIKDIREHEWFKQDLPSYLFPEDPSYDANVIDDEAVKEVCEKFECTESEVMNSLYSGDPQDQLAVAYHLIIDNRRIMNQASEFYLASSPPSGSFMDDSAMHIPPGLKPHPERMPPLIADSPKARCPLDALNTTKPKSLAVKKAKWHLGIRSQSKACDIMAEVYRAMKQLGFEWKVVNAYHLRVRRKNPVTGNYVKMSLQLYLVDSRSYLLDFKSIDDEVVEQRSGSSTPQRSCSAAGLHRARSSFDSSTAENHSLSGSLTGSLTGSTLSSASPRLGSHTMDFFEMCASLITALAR
T2 sequence (Q9R078 2-270 partner limits assumed): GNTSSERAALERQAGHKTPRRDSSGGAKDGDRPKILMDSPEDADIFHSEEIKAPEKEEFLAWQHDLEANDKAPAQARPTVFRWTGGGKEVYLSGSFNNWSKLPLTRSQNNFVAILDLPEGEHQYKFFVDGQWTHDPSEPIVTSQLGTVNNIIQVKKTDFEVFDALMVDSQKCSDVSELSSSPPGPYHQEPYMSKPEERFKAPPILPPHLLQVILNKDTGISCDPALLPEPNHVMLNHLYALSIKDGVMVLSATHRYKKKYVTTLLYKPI
T2 sequence (O54950 whole entry): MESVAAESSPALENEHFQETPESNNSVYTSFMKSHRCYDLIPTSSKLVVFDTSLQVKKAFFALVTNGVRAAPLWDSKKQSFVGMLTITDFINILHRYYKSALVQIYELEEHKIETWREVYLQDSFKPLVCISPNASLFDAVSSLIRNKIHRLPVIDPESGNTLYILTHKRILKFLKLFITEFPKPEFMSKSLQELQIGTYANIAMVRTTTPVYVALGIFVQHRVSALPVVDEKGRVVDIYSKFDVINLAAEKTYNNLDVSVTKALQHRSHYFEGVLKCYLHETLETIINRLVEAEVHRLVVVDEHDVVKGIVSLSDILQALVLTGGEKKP
T1 sequence (Q5EG47 whole entry, canonical isoform): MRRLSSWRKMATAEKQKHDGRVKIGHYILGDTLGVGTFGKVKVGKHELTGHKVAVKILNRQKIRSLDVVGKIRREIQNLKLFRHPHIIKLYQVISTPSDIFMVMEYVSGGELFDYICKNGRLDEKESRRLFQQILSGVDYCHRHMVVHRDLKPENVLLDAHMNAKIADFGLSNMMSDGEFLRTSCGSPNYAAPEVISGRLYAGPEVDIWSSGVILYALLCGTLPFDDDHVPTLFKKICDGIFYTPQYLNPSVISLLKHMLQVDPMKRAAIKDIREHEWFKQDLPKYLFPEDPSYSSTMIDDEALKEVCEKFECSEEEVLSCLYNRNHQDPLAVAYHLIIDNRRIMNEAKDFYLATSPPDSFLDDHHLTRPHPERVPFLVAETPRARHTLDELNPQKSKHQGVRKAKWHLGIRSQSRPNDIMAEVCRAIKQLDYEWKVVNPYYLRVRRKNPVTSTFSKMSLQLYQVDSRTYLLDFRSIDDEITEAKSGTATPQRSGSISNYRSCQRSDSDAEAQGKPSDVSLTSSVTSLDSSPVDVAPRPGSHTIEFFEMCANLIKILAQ
T1 sequence (Q9R078 2-270 partner limits assumed): as the sequence (Q9R078 2-270 partner limits assumed) above
T1 sequence (O54950 whole entry, canonical isoform): as the sequence (O54950 whole entry) above
Sequence of AMPKα2β1γ1 Thr172 dephosphorylation by PP2Cα (P54646 whole entry): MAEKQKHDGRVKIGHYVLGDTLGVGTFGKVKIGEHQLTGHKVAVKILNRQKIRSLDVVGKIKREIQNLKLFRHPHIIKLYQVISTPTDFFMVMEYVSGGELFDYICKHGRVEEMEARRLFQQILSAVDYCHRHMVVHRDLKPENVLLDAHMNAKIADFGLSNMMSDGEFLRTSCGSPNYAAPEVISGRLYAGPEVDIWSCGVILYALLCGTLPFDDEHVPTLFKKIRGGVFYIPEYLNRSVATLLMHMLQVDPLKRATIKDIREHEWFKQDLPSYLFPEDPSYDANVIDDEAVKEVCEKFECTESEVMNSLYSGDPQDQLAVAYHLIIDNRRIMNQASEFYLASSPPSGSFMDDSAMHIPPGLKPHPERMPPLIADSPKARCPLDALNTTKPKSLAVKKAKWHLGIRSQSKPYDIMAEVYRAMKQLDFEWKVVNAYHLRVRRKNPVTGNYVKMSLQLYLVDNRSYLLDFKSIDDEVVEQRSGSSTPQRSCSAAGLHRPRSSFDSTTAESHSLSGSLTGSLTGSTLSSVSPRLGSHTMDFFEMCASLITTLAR
Sequence of AMPKα2β1γ1 Thr172 dephosphorylation by PP2Cα (Q9Y478 whole entry partner): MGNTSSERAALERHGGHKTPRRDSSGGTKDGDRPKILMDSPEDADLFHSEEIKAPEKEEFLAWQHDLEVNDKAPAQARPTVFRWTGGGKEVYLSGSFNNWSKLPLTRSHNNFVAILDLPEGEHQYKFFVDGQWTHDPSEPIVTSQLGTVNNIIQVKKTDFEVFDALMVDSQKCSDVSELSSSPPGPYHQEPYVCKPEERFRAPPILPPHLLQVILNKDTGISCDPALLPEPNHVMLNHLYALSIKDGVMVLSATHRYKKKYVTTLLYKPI
Sequence of AMPKα2β1γ1 Thr172 dephosphorylation by PP2Cα (P54619 whole entry): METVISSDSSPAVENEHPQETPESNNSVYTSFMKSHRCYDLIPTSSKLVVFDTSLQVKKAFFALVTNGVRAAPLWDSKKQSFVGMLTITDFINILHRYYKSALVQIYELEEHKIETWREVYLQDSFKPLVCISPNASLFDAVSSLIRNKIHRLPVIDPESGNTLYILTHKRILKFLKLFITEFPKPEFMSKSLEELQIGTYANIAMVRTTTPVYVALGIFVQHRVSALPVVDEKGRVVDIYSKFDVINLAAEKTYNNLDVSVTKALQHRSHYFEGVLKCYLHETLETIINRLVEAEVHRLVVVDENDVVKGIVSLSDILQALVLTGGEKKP

Q: For `O=P(O)(O)c1ccc(-c2cc(O)on2)o1` [Compound C2, 5-(5-hydroxyl-isoxazol-3-yl)-furan-2-phosphonic acid], which effect on dephosphorylation [1] is on record?
A: Its effect on dephosphorylation is “essentially no effect”.

Q: What does the source list for `CC(C)C(=O)OCOP(=O)(OCOC(=O)C(C)C)c1ccc(C2=NOC(=O)C2)o1` [Compound C13]?
A: concentration at which complexes were stimulated [2]: 3 µM; concentration above which activation was evident [3]: above 30 μM
